{
  "source": "ChEMBL document CHEMBL3880385",
  "about": "“2-Iminoisoindolinone derivatives as thrombin receptor antagonists” (2011)",
  "note": "Structures can show the parent of a compound that is named as a salt.",
  "data": [
    {"assay": "Antiproliferative activity against thrombin-induced […] smooth muscle cells isolated from Sprague-Dawley rat aorta after 2 days by MTT assay", "type": "functional", "conditions": "VSMC, 48 h", "units": {"IC50": "nM"}, "values": [
      {"smiles": "CCOc1cc2c(c(F)c1OCC)C(=N)N(CC(=O)c1cc(N3CCN(CC#N)CC3)c(OC)c(C(C)(C)C)c1)C2", "IC50": 75},
      {"smiles": "CCOc1cc2c(c(F)c1OCC)C(=N)N(CC(=O)c1cc(N3CCN(CC(=O)O)CC3)c(OC)c(C(C)(C)C)c1)C2", "IC50": 150},
      {"smiles": "CCOc1cc2c(c(F)c1OCC)C(=N)N(CC(=O)c1cc(N3CCNCC3)c(OC)c(C(C)(C)C)c1)C2", "IC50": 52},
      {"smiles": "CCOc1cc2c(c(F)c1OCC)C(=N)N(CC(=O)c1cc(N3CCOCC3)c(OC)c(C(C)(C)C)c1)C2", "note": "[ATOPAXAR HYDROBROMIDE]", "IC50": 32},
      {"smiles": "CCOc1cc2c(c(F)c1OCC)C(=N)N(CC(=O)c1cc(N3CCC(O)CC3)c(OC)c(C(C)(C)C)c1)C2", "IC50": 23}
    ]}
  ]
}
